Earlier results, collected in publication PMC9065038 (Scientific Reports, 2022).

Experiments:
[1] = constipation, respiratory depression
[2] = in vivo
[3] = in vivo; remark: listed apart in the source
[4] = set-up: method as in PMID 28635181; conditions: rats
[5] = target: NOP receptor (S346, S351, T362/S363) (Homo sapiens, UniProt P41146)
Sequence of NOP receptor (S346, S351, T362/S363) (P41146 whole entry): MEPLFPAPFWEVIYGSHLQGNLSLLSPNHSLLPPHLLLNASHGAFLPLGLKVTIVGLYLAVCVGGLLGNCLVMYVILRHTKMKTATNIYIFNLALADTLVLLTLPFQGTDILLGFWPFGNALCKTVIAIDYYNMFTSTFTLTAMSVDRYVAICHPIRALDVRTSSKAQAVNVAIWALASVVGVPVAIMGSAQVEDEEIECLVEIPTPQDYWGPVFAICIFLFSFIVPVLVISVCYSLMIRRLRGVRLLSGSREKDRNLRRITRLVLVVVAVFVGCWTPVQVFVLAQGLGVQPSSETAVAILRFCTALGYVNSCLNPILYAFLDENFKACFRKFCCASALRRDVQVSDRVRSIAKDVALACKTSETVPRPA

In the case of COc1ccsc1CNCC[C@@]1(c2ccccn2)CCOC2(CCCC2)C1 [TRV130], the “side-effects in clinical trials” value [1] is listed as “failed to produce therapeutic results devoid of side-effects”.
For CC(C)[C@H]1CC[C@@H](N2CCC3(CC2)C(=O)N(CCNS(N)(=O)=O)Cc2ccccc23)CC1 [AT-121], the “reinforcing effects or physical dependence” value [2] is listed as “devoid of reinforcing effects or physical dependence”, the tolerance development [2] is listed as “significantly lower tolerance development” and the “anti-nociceptive and anti-hyperalgesic effects” value [3] is listed as “potent anti-nociceptive and anti-hyperalgesic effects”.
In the case of CCC1C(=O)N(C2CCN(CCC(c3ccccc3)c3ccccc3)CC2)c2ccccc21 (stereo not drawn) [AT-034], the cocaine self-administration [4] is listed as “significantly reduce cocaine self-administration”.
In the case of buprenorphine, the “NOP phosphorylation profile (in words)” value [5] is given as “none at NOP”.
